Measurements from patent US20190185518A9, “WARHEAD-CONTAINING PEPTIDOMIMETIC MACROCYCLES AS MODULATORS OF BFL-1” (AILERON Therapeutics, Inc., priority 2017, published 2019).
pKi: −log10 of the molar value. Positions of bridges follow the written chain, without caps; N, C: chain ends. Non-standard residues stand in square brackets, D forms with d. Residues, ends and D or L forms follow the SMILES beside them. Bip = N[C@@H](Cc1ccc(-c2ccccc2)cc1)C(=O)O; hPhe = N[C@@H](CCc1ccccc1)C(=O)O; R8 = C=CCCCCCC[C@@](C)(N)C(=O)O; Cit = NC(=O)NCCC[C@H](N)C(=O)O; Chg = N[C@H](C(=O)O)C1CCCCC1; S5 = C=CCCC[C@](C)(N)C(=O)O; Aib = CC(C)(N)C(=O)O

What was measured:
Bcl-2 = Bcl-2 (Homo sapiens, UniProt P10415); test: Ki determination for Bcl-2 (BCL-2 family binding spectrum); details: read-out: Ki BCL-2
Chain of Bcl-2 (P10415 whole entry, species assumed): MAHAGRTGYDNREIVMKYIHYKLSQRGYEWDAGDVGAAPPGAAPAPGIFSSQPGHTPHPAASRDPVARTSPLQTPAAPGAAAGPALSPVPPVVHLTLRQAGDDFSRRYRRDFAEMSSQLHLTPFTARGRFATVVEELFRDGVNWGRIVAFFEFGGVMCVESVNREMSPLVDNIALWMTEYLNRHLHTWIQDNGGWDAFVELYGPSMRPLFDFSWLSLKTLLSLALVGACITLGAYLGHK
From the text: To assess the binding and affinity of compounds that antagonize the interaction between a peptide and an acceptor protein, a fluorescence polarization assay (FPA) utilizing a fluoresceinated peptidomimetic macrocycle derived from a peptidomimetic precursor sequence is used, for example. The FPA technique measures the molecular orientation and mobility using polarized light and fluorescent tracer. […] A compound that antagonizes the interaction between the fluoresceinated peptidomimetic macrocycle and an acceptor protein will be detected in a competitive binding FPA experiment.
For example, putative antagonist compounds (1 nM to 1 mM) and a fluoresceinated peptidomimetic macrocycle (25 nM) are incubated with the acceptor protein (50 nM) in binding buffer (140 mM NaCl, 50 mM Tris-HCL, pH 7.4) for 30 minutes at room temperature. Antagonist binding activity is measured, for example, by fluorescence polarization on a luminescence spectrophotometer (e.g. Perkin-Elmer LS50B). Kd values may be determined by nonlinear regression analysis using, for example, Graphpad Prism software (GraphPad Software, Inc., San Diego, Calif.).

Mcl-1 = Mcl-1 (Homo sapiens, UniProt Q07820); test: Ki determination for Mcl-1 (BCL-2 family binding spectrum); details: read-out: Ki MCL-1
Chain of Mcl-1 (Q07820 whole entry, species assumed): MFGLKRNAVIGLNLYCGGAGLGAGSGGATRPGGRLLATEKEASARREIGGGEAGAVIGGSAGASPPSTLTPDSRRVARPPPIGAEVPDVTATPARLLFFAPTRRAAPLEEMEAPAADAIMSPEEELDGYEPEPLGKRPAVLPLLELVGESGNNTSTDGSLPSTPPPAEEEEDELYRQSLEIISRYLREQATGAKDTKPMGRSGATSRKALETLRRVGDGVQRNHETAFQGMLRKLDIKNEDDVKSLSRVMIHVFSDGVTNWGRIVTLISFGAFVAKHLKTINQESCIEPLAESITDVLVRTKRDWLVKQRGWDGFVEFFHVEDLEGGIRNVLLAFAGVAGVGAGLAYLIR
Procedure, shortened: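 Competitive fluorescence polarization assay in which compounds displace a fluoresceinated peptidomimetic macrocycle tracer from Mcl-1. Affinity constants were obtained by nonlinear regression.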

Compound | pKi (Bcl-2) | pKi (Mcl-1)
CC[C@H](C)[C@H](NC(C)=O)C(=O)N[C@@H](Cc1c[nH]c2ccccc12)C(=O)N[C@H](C(=O)N[C@@H](C)C(=O)N[C@@H](CCC(N)=O)C(=O)N[C@@H](C)C(=O)N[C@@H](CC(C)C)C(=O)N[C@@H](CCCNC(N)=O)C(=O)N[C@]1(C)CCCCCCC=CCCC[C@@](C)(C(=O)N[C@@H](Cc2ccc(O)cc2)C(=O)N[C@@H](Cc2ccc(O)cc2)C(=O)N[C@@H](C)C(N)=O)NC(=O)[C@H](CC(N)=O)NC(=O)[C@H](Cc2ccccc2)NC(=O)[C@H](C)NC(=O)[C@H](CC(=O)O)NC(=O)CNC(=O)[C@H]([C@@H](C)CC)NC1=O)[C@@H](C)CC [compound 1655] (Ac-IWIAQAL[Cit][R8]IGDAFN[S5]YYA-NH2; staple 9-16) | 6.67 | 8.12
CC[C@H](C)[C@H](NC(C)=O)C(=O)N[C@@H](Cc1c[nH]c2ccccc12)C(=O)N[C@@H](Cc1ccc(-c2ccccc2)cc1)C(=O)N[C@@H](C)C(=O)N[C@@H](CCC(N)=O)C(=O)N[C@@H](C)C(=O)N[C@@H](CC(C)C)C(=O)N[C@@H](CCCNC(=N)N)C(=O)N[C@]1(C)CCCCCCC=CCCC[C@@](C)(C(=O)N[C@@H](Cc2ccc(O)cc2)C(=O)N[C@@H](Cc2ccc(O)cc2)C(=O)N[C@@H](C)C(N)=O)NC(=O)[C@H](CC(N)=O)NC(=O)[C@H](Cc2ccccc2)NC(=O)[C@H](C)NC(=O)[C@H](CC(=O)O)NC(=O)CNC(=O)[C@H]([C@@H](C)CC)NC1=O [compound 1686] (Ac-IW[Bip]AQALR[R8]IGDAFN[S5]YYA-NH2; staple 9-16) | < 6.00 | 7.96
CC[C@H](C)[C@H](NC(C)=O)C(=O)N[C@@H](Cc1c[nH]c2ccccc12)C(=O)N[C@H](C(=O)N[C@@H](C)C(=O)NC(C)(C)C(=O)N[C@@H](C)C(=O)N[C@@H](CC(C)C)C(=O)N[C@@H](CCCNC(=N)N)C(=O)N[C@]1(C)CCCCCCC=CCCC[C@@](C)(C(=O)N[C@@H](Cc2ccc(O)cc2)C(=O)N[C@@H](Cc2ccc(O)cc2)C(=O)N[C@@H](C)C(N)=O)NC(=O)[C@H](CC(N)=O)NC(=O)[C@H](Cc2ccccc2)NC(=O)[C@H](C)NC(=O)[C@H](CC(=O)O)NC(=O)CNC(=O)[C@H]([C@@H](C)CC)NC1=O)[C@@H](C)CC [compound 1708] (Ac-IWIA[Aib]ALR[R8]IGDAFN[S5]YYA-NH2; staple 9-16) | 6.92 | 
CC[C@H](C)[C@H](NC(C)=O)C(=O)N[C@@H](Cc1c[nH]c2ccccc12)C(=O)N[C@H](C(=O)N[C@@H](C)C(=O)N[C@@H](C)C(=O)N[C@@H](C)C(=O)N[C@@H](CC(C)C)C(=O)N[C@@H](CCCCN)C(=O)N[C@]1(C)CCCCCCC=CCCC[C@@](C)(C(=O)N[C@@H](Cc2ccc(O)cc2)C(=O)N[C@@H](Cc2ccc(O)cc2)C(=O)N[C@@H](C)C(N)=O)NC(=O)[C@H](CC(N)=O)NC(=O)[C@H](Cc2ccccc2)NC(=O)[C@H](C)NC(=O)[C@H](CC(=O)O)NC(=O)CNC(=O)[C@H]([C@@H](C)CC)NC1=O)[C@@H](C)CC [compound 1737] (Ac-IWIAAALK[R8]IGDAFN[S5]YYA-NH2; staple 9-16) | 7.59 | 
CC[C@H](C)[C@H](NC(C)=O)C(=O)N[C@@H](Cc1c[nH]c2ccccc12)C(=O)N[C@H](C(=O)N[C@@H](C)C(=O)N[C@@H](C)C(=O)N[C@@H](C)C(=O)N[C@@H](CC(C)C)C(=O)N[C@@H](CCCNC(=N)N)C(=O)N[C@]1(C)CCCCCCC=CCCC[C@@](C)(C(=O)N[C@@H](Cc2ccc(O)cc2)C(=O)N[C@@H](Cc2ccc(O)cc2)C(=O)N[C@@H](C)C(N)=O)NC(=O)[C@H](CC(N)=O)NC(=O)[C@H](Cc2ccccc2)NC(=O)[C@H](C)NC(=O)[C@H](CCC(=O)O)NC(=O)CNC(=O)[C@H]([C@@H](C)CC)NC1=O)[C@@H](C)CC [compound 1740] (Ac-IWIAAALR[R8]IGEAFN[S5]YYA-NH2; staple 9-16) | 6.85 | 
CC[C@H](C)[C@H](NC(C)=O)C(=O)N[C@@H](Cc1c[nH]c2ccccc12)C(=O)N[C@H](C(=O)N[C@@H](C)C(=O)N[C@@H](C)C(=O)N[C@@H](C)C(=O)N[C@@H](CC(C)C)C(=O)N[C@@H](CCCNC(=N)N)C(=O)N[C@]1(C)CCCCCCC=CCCC[C@@](C)(C(=O)N[C@@H](CC(C)C)C(=O)N[C@@H](Cc2ccc(O)cc2)C(=O)N[C@@H](C)C(N)=O)NC(=O)[C@H](CC(N)=O)NC(=O)[C@H](Cc2ccccc2)NC(=O)[C@H](C)NC(=O)[C@H](CC(=O)O)NC(=O)CNC(=O)[C@H]([C@@H](C)CC)NC1=O)[C@@H](C)CC [compound 1753] (Ac-IWIAAALR[R8]IGDAFN[S5]LYA-NH2; staple 9-16) | 6.90 | 
CC[C@H](C)[C@H](NC(C)=O)C(=O)N[C@]1(C)CCCCCCC=CCCCC2(CCCC=CCCCCCC[C@@](C)(C(=O)N[C@@H](Cc3ccc(O)cc3)C(=O)N[C@@H](Cc3ccc(O)cc3)C(=O)N[C@@H](C)C(N)=O)NC(=O)[C@H](CC(N)=O)NC(=O)[C@H](Cc3ccccc3)NC(=O)[C@H](CCC(=O)O)NC(=O)[C@H](CC(=O)O)NC(=O)CNC(=O)[C@H]([C@@H](C)CC)NC2=O)NC(=O)[C@H](CCCNC(=N)N)NC(=O)[C@H](CC(C)C)NC(=O)[C@H](C)NC(=O)[C@H](CCC(N)=O)NC(=O)[C@H](C)NC(=O)[C@H]([C@@H](C)CC)NC1=O (stereo partly shown) [compound 1782] | 7.66 | 

Continued by rising pKi (Bcl-2), values first:

pKi (Bcl-2) | pKi (Mcl-1) | Compound
6.85 |  | CC[C@H](C)[C@H](NC(C)=O)C(=O)N[C@@H](Cc1c[nH]c2ccccc12)C(=O)N[C@H](C(=O)N[C@@H](C)C(=O)N[C@@H](C)C(=O)N[C@@H](C)C(=O)N[C@@H](CC(C)C)C(=O)N[C@@H](CCCNC(=N)N)C(=O)N[C@]1(C)CCCCCCC=CCCC[C@@](C)(C(=O)N[C@@H](Cc2ccc(O)cc2)C(=O)N[C@@H](Cc2ccc(O)cc2)C(=O)N[C@@H](CCCNC(=N)N)C(N)=O)NC(=O)[C@H](CC(N)=O)NC(=O)[C@H](Cc2ccccc2)NC(=O)[C@H](C)NC(=O)[C@H](CC(=O)O)NC(=O)CNC(=O)[C@H]([C@@H](C)CC)NC1=O)[C@@H](C)CC [compound 1765] (Ac-IWIAAALR[R8]IGDAFN[S5]YYR-NH2; staple 9-16)
6.92 |  | CC[C@H](C)[C@H](NC(C)=O)C(=O)N[C@@H](Cc1c[nH]c2ccccc12)C(=O)N[C@H](C(=O)N[C@@H](C)C(=O)N[C@@H](C)C(=O)N[C@@H](C)C(=O)N[C@@H](CC(C)C)C(=O)N[C@@H](CCCNC(=N)N)C(=O)N[C@]1(C)CCCCCCC=CCCC[C@@](C)(C(=O)N[C@@H](Cc2ccc(O)cc2)C(=O)N[C@@H](Cc2ccc(O)cc2)C(=O)N[C@@H](C)C(N)=O)NC(=O)[C@H](CC(N)=O)NC(=O)[C@H](Cc2ccccc2)NC(=O)[C@H](C)NC(=O)[C@H](CC(=O)O)NC(=O)[C@H](C(C)C)NC(=O)[C@H]([C@@H](C)CC)NC1=O)[C@@H](C)CC [compound 1739] (Ac-IWIAAALR[R8]IVDAFN[S5]YYA-NH2; staple 9-16)
7.41 | 8.34 | CC[C@H](C)[C@H](NC(C)=O)C(=O)N[C@@H](Cc1c[nH]c2ccccc12)C(=O)N[C@H](C(=O)N[C@@H](C)C(=O)N[C@@H](CCC(N)=O)C(=O)N[C@@H](C)C(=O)N[C@@H](CC(C)C)C(=O)N[C@@H](CCCNC(=N)N)C(=O)N[C@]1(C)CCCCCCC=CCCC[C@@](C)(C(=O)N[C@@H](Cc2ccc(O)cc2)C(=O)N[C@@H](Cc2ccc(O)cc2)C(=O)N[C@@H](C)C(N)=O)NC(=O)[C@H](CC(N)=O)NC(=O)[C@H](Cc2ccccc2)NC(=O)[C@H](C)NC(=O)[C@H](CC(=O)O)NC(=O)CNC(=O)[C@H]([C@@H](C)CC)NC1=O)C1CCCCC1 [compound 1713] (Ac-IW[Chg]AQALR[R8]IGDAFN[S5]YYA-NH2; staple 9-16)
7.41 | 8.57 | CC[C@H](C)[C@H](NC(C)=O)C(=O)N[C@@H](Cc1c[nH]c2ccccc12)C(=O)N[C@H](C(=O)N[C@@H](C)C(=O)N[C@@H](CCC(N)=O)C(=O)N[C@@H](C)C(=O)N[C@@H](CC(C)C)C(=O)N[C@@H](CCCNC(=N)N)C(=O)N[C@]1(C)CCCCCCC=CCCC[C@@](C)(C(=O)N[C@@H](Cc2ccc(O)cc2)C(=O)N[C@@H](Cc2ccc(O)cc2)C(=O)N[C@@H](C)C(N)=O)NC(=O)[C@H](CC(N)=O)NC(=O)[C@H](CCc2ccccc2)NC(=O)[C@H](C)NC(=O)[C@H](CC(=O)O)NC(=O)CNC(=O)[C@H]([C@@H](C)CC)NC1=O)[C@@H](C)CC [compound 1743] (Ac-IWIAQALR[R8]IGDA[hPhe]N[S5]YYA-NH2; staple 9-16)
7.51 | 8.74 | CC[C@H](C)[C@H](NC(C)=O)C(=O)N[C@@H](Cc1c[nH]c2ccccc12)C(=O)N[C@H](C(=O)N[C@@H](C)C(=O)N[C@@H](C)C(=O)N[C@@H](C)C(=O)N[C@@H](CC(C)C)C(=O)N[C@@H](CCCNC(=N)N)C(=O)N[C@]1(C)CCCCCCC=CCCC[C@@](C)(C(=O)N[C@@H](Cc2ccc(O)cc2)C(=O)N[C@@H](Cc2ccc(O)cc2)C(=O)N[C@@H](C)C(N)=O)NC(=O)[C@H](CCC(=O)O)NC(=O)[C@H](Cc2ccccc2)NC(=O)[C@H](C)NC(=O)[C@H](CC(=O)O)NC(=O)CNC(=O)[C@H]([C@@H](C)CC)NC1=O)[C@@H](C)CC [compound 1749] (Ac-IWIAAALR[R8]IGDAFE[S5]YYA-NH2; staple 9-16)
7.51 | 8.10 | CC[C@H](C)[C@H](NC(C)=O)C(=O)N[C@@H](Cc1c[nH]c2ccccc12)C(=O)N[C@H](C(=O)N[C@@H](C)C(=O)N[C@@H](CCC(N)=O)C(=O)N[C@@H](C)C(=O)N[C@@H](CC(C)C)C(=O)N[C@@H](CCCNC(=N)N)C(=O)N[C@]1(C)CCCCCCC=CCCC[C@@](C)(C(=O)N[C@@H](Cc2ccc(O)cc2)C(=O)N[C@@H](CCc2ccccc2)C(=O)N[C@@H](C)C(N)=O)NC(=O)[C@H](CC(N)=O)NC(=O)[C@H](Cc2ccccc2)NC(=O)[C@H](C)NC(=O)[C@H](CC(=O)O)NC(=O)CNC(=O)[C@H]([C@@H](C)CC)NC1=O)[C@@H](C)CC [compound 1757] (Ac-IWIAQALR[R8]IGDAFN[S5]Y[hPhe]A-NH2; staple 9-16)
